According to patent publication US11639350B2, “Heteroaryldihydropyrimidine derivatives and methods of treating hepatitis B infections” (Janssen Pharmaceutica NV, priority 2018, dated 2023):

How the values were obtained:
HBV = HBV inhibitory activity: HBV DNA in the culture medium of HepG2.2.15 cells by q-PCR; type: cell-based; conditions: Hepatitis B virus, HepG2.2.15, 144 h, HepG2.2.15 cells, 6 days of compound treatment, HBV DNA in culture medium by q-PCR, highest concentration 10 μM; read-out: EC50
Method: (§1) HBV replication inhibition by the compounds of this invention as well as cytotoxicity determination was determined in cells infected or transfected with HBV, or cells with stably integrated HBV, such as HepG2.2.15 cells (Sells et al. 1987). The method used herein is as follows.
(§2) The HepG2.2.15 cells were seeded into 96-well plate in 2% FBS (Fetal bovine serum) culture medium at the density of 40,000 cells/well and 5,000 cells/well for HBV inhibitory activity and cytotoxicity determination, respectively. After seeding, the cell plates were incubated at 37° C., 5% CO2 overnight. The next day, medium containing compounds were added to treat the cells for 6 days with medium refreshed once in the middle of the treatment. Eight dose points with 3 folds dilution of each compound were adopted and the highest concentration of the compounds was 10 μM and 100 μM for HBV inhibitory activity and cytotoxicity determination, respectively.
The HBV DAN change in the cell culture medium induced by the compounds was measured by q-PCR (quantitative polymerase chain reaction) method. The HBV DNA in the culture medium was extracted using QIAamp 96 DNA Blood Kit according to the manual and then quantified by q-PCR using the primers and probe in the table below: […]
(§3) EC50 and CC50 values are calculated by the GraphPad Prism software and are averages where multiple measurements were made. EC50 values for the other exemplified compounds were either not measured or higher than 1 μM.

[1] = Cytotoxicity determination in HepG2.2.15 cells (CCK-8); type: cell-based; conditions: human, 6 days of compound treatment, CCK-8, highest concentration 100 μM
Method: as §1, §2
After 6 days of compounds treatment, 20 μl CCK-8 (Cell Counting Kit-8 (Tianjin Biolite company)) reagents were added to each well of cytotoxicity assay plates, the plate was incubated at 37° C., 5% CO2 for 2.5 hours and the absorbance at 450 nm wavelength was measured, at the same time the absorbance at 630 nm wavelength was read as reference.
as §3

Structure (SMILES) | EC50 (HBV) | CC50 at 6 days [1]
COC(=O)C1=C(C2COC2)NC(c2nccs2)=NC1c1ccc(F)cc1Cl (racemic) [Compound 217, Methyl 4-(2-chloro-4-fluorophenyl)-6-(oxetan-3-yl)-2-(thiazol-2-yl)-1,4-dihydropyrimidine-5-carboxylate] | 511 nM | 29600 nM
COC(=O)C1=C([C@H]2CC[C@@H](NS(C)(=O)=O)CC2)NC(c2ncc(F)cc2F)=NC1c1ccc(F)cc1Cl (mixture of isomers) [Compound 399, (cis)-Methyl 4-(2-chloro-4-fluorophenyl)-2-(3,5-difluoropyridin-2-yl)-6-(4-(methylsulfonamido)cyclohexyl)-1,4-dihydropyrimidine-5-carboxylate] | 33 nM | 36800 nM
CCOC(=O)C1=C([C@H]2C[C@@H](NS(C)(=O)=O)C2(C)C)NC(c2nccs2)=NC1c1ccc(F)cc1Cl (mixture of isomers) [Compound 437, (cis)-Ethyl 4-(2-chloro-4-fluorophenyl)-6-(2,2-dimethyl-3-(methylsulfonamido)cyclobutyl)-2-(thiazol-2-yl)-1,4-dihydropyrimidine-5-carboxylate] | 404 nM | 4000 nM
CCOC(=O)C1=C([C@H]2CC[C@H](C(=O)OC)CC2)NC(c2nccs2)=NC1c1cccc(F)c1Cl (relative stereo) [Compound 22Y, Ethyl 4-(2-chloro-3-fluorophenyl)-6-(trans-4-(methoxycarbonyl)-cyclohexyl)-2-(thiazol-2-yl)-1,4-dihydropyrimidine-5-carboxylate] | 224 nM | 75900 nM
CCOC(=O)C[C@H]1CC[C@H](C2=C(C(=O)OC)C(c3cccc(F)c3Cl)N=C(c3nccs3)N2)CC1 (relative stereo) [Compound 28, Methyl 4-(2-chloro-3-fluorophenyl)-6-(trans-4-(2-ethoxy-2-oxoethyl)-cyclohexyl)-2-(thiazol-2-yl)-1,4-dihydropyrimidine-5-carboxylate] | 407 nM | 49300 nM
COC(=O)C1=C([C@H]2CC[C@H](CC(=O)O)CC2)NC(c2nccs2)=NC1c1cccc(F)c1Cl (relative stereo) [Compound 29, 2-(trans-4-(6-(2-Chloro-3-fluorophenyl)-5-(methoxycarbonyl)-2-(thiazol-2-yl)-3,6-dihydropyrimidin-4-yl)cyclohexyl)acetic Acid] | 123 nM | 33600 nM
COC(=O)C1=C([C@H]2CC[C@@H](N(CC(=O)O)S(C)(=O)=O)CC2)NC(c2nccs2)=NC1c1ccc(F)cc1Cl (relative stereo) [Compound 135, 2-(N-(cis-4-(6-(2-chloro-4-fluorophenyl)-5-(methoxycarbonyl)-2-(thiazol-2-yl)-3,6-dihydropyrimidin-4-yl)cyclohexyl)methylsulfonamido)acetic Acid] | 346 nM | 62500 nM
COC(=O)C1=C([C@H]2CC[C@H](N(CC(=O)O)S(C)(=O)=O)CC2)NC(c2nccs2)=NC1c1ccc(F)cc1Cl (relative stereo) [Compound 139, 2-(N-(trans-4-(6-(2-chloro-4-fluorophenyl)-5-(methoxycarbonyl)-2-(thiazol-2-yl)-3,6-dihydropyrimidin-4-yl)cyclohexyl)methylsulfonamido)acetic Acid] | 112 nM | 75600 nM
COC(=O)C1=C(C2CCN(S(=O)(=O)[C@H]3C[C@H](C(=O)O)C3)CC2)NC(c2nccs2)=NC1c1ccc(F)c(F)c1Br (relative stereo) [Compound 162, trans-3-((4-(−6-(2-Bromo-3,4-difluorophenyl)-5-(methoxycarbonyl)-2-(thiazol-2-yl)-3,6-dihydropyrimidin-4-yl)piperidin-1-yl)sulfonyl)cyclobutanecarboxylic Acid] | 59 nM | 34500 nM
COC(=O)C1=C([C@H]2C[C@@H](C)CO2)NC(c2nccs2)=NC1c1cccc(F)c1Cl (relative stereo) [Compound 171, (cis)-Methyl 4-(2-chloro-3-fluorophenyl)-6-(4-methyltetrahydrofuran-2-yl)-2-(thiazol-2-yl)-1,4-dihydropyrimidine-5-carboxylate] | 124 nM | 15500 nM
COC(=O)C1=C([C@H]2CC[C@H](NS(=O)(=O)CCO)CC2)NC(c2nccs2)=NC1c1ccc(F)cc1Cl (relative stereo) [Compound 187B, (trans)-Methyl 4-(2-chloro-4-fluorophenyl)-6-(4-(2-hydroxyethylsulfonamido)cyclohexyl)-2-(thiazol-2-yl)-1,4-dihydropyrimidine-5-carboxylate] | 32 nM | 18900 nM
COC(=O)C1=C([C@H]2C[C@@H](CO)CO2)NC(c2nccs2)=NC1c1cccc(F)c1Cl (relative stereo) [Compound 221, (cis)-Methyl 4-(2-chloro-3-fluorophenyl)-6-(4-(hydroxymethyl)tetrahydrofuran-2-yl)-2-(thiazol-2-yl)-1,4-dihydropyrimidine-5-carboxylate] | 53 nM | 47100 nM
COC(=O)C1=C([C@H]2CC[C@H](C(=O)OC)CC2)NC(c2nccs2)=NC1c1ccc(F)cc1Br (relative stereo) [Compound 224, (trans)-Methyl 4-(2-bromo-4-fluorophenyl)-6-(4-(methoxycarbonyl)cyclohexyl)-2-(thiazol-2-yl)-1,4-dihydropyrimidine-5-carboxylate] | 71 nM | 28400 nM
COC(=O)C1=C(C2CCN(S(=O)(=O)[C@H]3C[C@@H](C(=O)O)C3)CC2)NC(c2nccs2)=NC1c1ccc(F)c(F)c1Cl (relative stereo) [Compound 232D, (cis)-3-((4-(−6-(2-Chloro-3,4-difluorophenyl)-5-(methoxycarbonyl)-2-(thiazol-2-yl)-3,6-dihydropyrimidin-4-yl)piperidin-1-yl)sulfonyl)cyclobutanecarboxylic Acid] | 30 nM | 39600 nM
COC(=O)C1=C([C@H]2CC[C@H](NS(N)(=O)=O)CC2)NC(c2nccs2)=NC1c1ccc(F)c(F)c1Cl (relative stereo) [Compound 238, (trans)-Methyl 4-(2-chloro-3,4-difluorophenyl)-6-(4-(sulfamoylamino)cyclohexyl)-2-(thiazol-2-yl)-1,4-dihydropyrimidine-5-carboxylate] | 53 nM | 13400 nM
COC(=O)C1=C([C@H]2CC[C@H](NS(=O)(=O)CCCO)CC2)NC(c2nccs2)=NC1c1ccc(F)c(F)c1Cl (relative stereo) [Compound 253B, (trans)-Methyl 4-(2-chloro-3,4-difluorophenyl)-6-(4-(3-hydroxypropylsulfonamido)cyclohexyl)-2-(thiazol-2-yl)-1,4-dihydropyrimidine-5-carboxylate] | 8 nM | 13700 nM
CCOC(=O)C1=C([C@@H]2C[C@H](NS(C)(=O)=O)CO2)NC(c2nccs2)=NC1c1cccc(F)c1Cl (relative stereo) [Compound 261, (cis)-Ethyl 4-(2-chloro-3-fluorophenyl)-6-(4-(methylsulfonamido)-tetrahydrofuran-2-yl)-2-(thiazol-2-yl)-1,4-dihydropyrimidine-5-carboxylate] | 142 nM | 37500 nM
CCOC(=O)C1=C([C@@H]2C[C@H](NC(C)=O)CO2)NC(c2nccs2)=NC1c1cccc(F)c1Cl (relative stereo) [Compound 262, (cis)-Ethyl 6-(4-acetamidotetrahydrofuran-2-yl)-4-(2-chloro-3-fluorophenyl)-2-(thiazol-2-yl)-1,4-dihydropyrimidine-5-carboxylate] | 400 nM | 75800 nM
COC(=O)C1=C(C2CCN(S(=O)(=O)[C@H]3C[C@H](C(=O)O)C3)CC2)NC(c2nccs2)=NC1c1ccc(F)cc1Cl (relative stereo) [Compound 285A, trans-3-((4-(6-(2-Chloro-4-fluorophenyl)-5-(methoxycarbonyl)-2-(thiazol-2-yl)-3,6-dihydropyrimidin-4-yl)piperidin-1-yl)sulfonyl)cyclobutane-carboxylic Acid] | 24 nM | 67200 nM
COC(=O)C1=C([C@H]2CC[C@H](C(=O)O)CC2)NC(c2nccs2)=NC1c1ccc(F)c(F)c1Cl (relative stereo) [Compound 289A, (trans)-4-(6-(2-chloro-3,4-difluorophenyl)-5-(methoxycarbonyl)-2-(thiazol-2-yl)-3,6-dihydropyrimidin-4-yl)cyclohexanecarboxylic Acid] | 15 nM | 24200 nM
COC(=O)C1=C(C2CCCC(C(=O)O)CC2)NC(c2nccs2)=NC1c1ccc(F)cc1Cl (single isomer, unassigned) [Compound 95A, 4-(6-(2-Chloro-4-fluorophenyl)-5-(methoxycarbonyl)-2-(thiazol-2-yl)-3,6-dihydropyrimidin-4-yl)cycloheptanecarboxylic Acid] | 101 nM | –
